Test results as given in ChEMBL document CHEMBL1201862, “PubChem BioAssay data set” (2004).
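Step 1: Grow cells in 96-well plates. Step 2: Expose to compound for 48 hours at 5 concentrations. Step 3: Interpolate endpoints linearly; if unreached, use highest concentration. At the GI50, growth is halved.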 Calls of active or inactive are those of the source. Rule as the data show it: active = GI50 up to about 1.1 µM and inactive = higher.

How the values were obtained:
Assay in all cases: NCI tumour cell line growth inhibition, 48 h
[1] = system: 786-0
[2] = system: A498
[3] = system: A549
[4] = system: ACHN
[5] = system: BT-549
[6] = system: CAKI-1
[7] = system: CCRF-CEM
[8] = system: COLO 205
[9] = system: DU-145
[10] = system: EKVX
[11] = system: HCC 2998
[12] = system: HCT-116
[13] = system: HCT-15
[14] = system: HL-60
[15] = system: HOP-62
[16] = system: HOP-92
[17] = system: HT-29
[18] = system: Hs-578T
[19] = system: IGROV-1
[20] = system: K562
[21] = system: LOX IMVI
[22] = system: M14
[23] = system: MCF7
[24] = system: MDA-MB-231
[25] = system: MDA-MB-435
[26] = system: MDA-N
[27] = system: MOLT-4
[28] = system: Malme-3M
[29] = system: NCI-H226
[30] = system: NCI-H23
[31] = system: NCI-H460
[32] = system: NCI-H522
[33] = system: NCI/ADR-RES
[34] = system: OVCAR-3
[35] = system: OVCAR-4
[36] = system: OVCAR-5
[37] = system: OVCAR-8
[38] = system: RPMI-8226
[39] = system: RXF 393
[40] = system: SF-268
[41] = system: SF-295
[42] = system: SF-539
[43] = system: SK-MEL-28
[44] = system: SK-MEL-2
[45] = system: SK-MEL-5
[46] = system: SK-OV-3
[47] = system: SN12C
[48] = system: SNB-19
[49] = system: SNB-75
[50] = system: SR
[51] = system: SW-620
[52] = system: T47D
[53] = system: TK-10
[54] = system: U-251
[55] = system: UACC-257
[56] = system: UACC-62
[57] = system: UO-31

Measured: GI50

COc1ccc(-c2cc(=O)c3c(OC)c(OC)c(OC)c(OC)c3o2)cc1OC [NOBILETIN]
inactive: [1] 49.9 µM | [2] 25.2 µM | [3] 42.8 µM | [4] 37.3 µM | [5] 62.7 µM | [6] 29.4 µM | [7] 65.6 µM | [8] 35 µM | [9] 61.1 µM | [10] 56.2 µM | [11] 32.7 µM | [12] 72.4 µM | [14] 17.3 µM | [15] 44.7 µM | [16] 18.3 µM | [17] 32.1 µM | [18] 21.1 µM | [19] 49.2 µM | [20] 36.3 µM | [21] 30.1 µM | [22] 55.8 µM | [23] 4.86 µM | [24] 34.5 µM | [25] 45.1 µM | [26] 49.9 µM | [27] 25.2 µM | [28] > 100 µM | [29] 91.6 µM | [30] 47.1 µM | [31] 52.8 µM | [32] 28.6 µM | [33] 20.3 µM | [34] 24.7 µM | [35] 28 µM | [36] > 100 µM | [37] 29.6 µM | [38] 39.8 µM | [39] 61.5 µM | [40] 66.8 µM | [41] 32.5 µM | [42] > 100 µM | [43] > 100 µM | [44] 49.4 µM | [45] 18.6 µM | [46] 61.7 µM | [47] 41.5 µM | [48] > 100 µM | [49] 30.5 µM | [50] 59.7 µM | [51] 47.5 µM | [52] 19.5 µM | [53] 50.1 µM | [54] 71 µM | [55] 33.5 µM | [56] 25.6 µM | [57] 24.7 µM
26.5 µM: [13]
